These results are taken from publication PMC4163096 (Bioorganic & medicinal chemistry letters, 2014).

Where two headings read alike, the source gives them in different places.

Data set [1] addresses T1, TSPO (Rattus norvegicus, UniProt P16257). As to conditions: cited from earlier work; for Ki: read-out: Ki for TSPO in C6 glioma, C6 glioma.
Data set [2] is described as follows: Radio-TLC analysis of plasma samples taken during PET scan. Format: in vivo, male Wistar rats. As to conditions: samples at 2, 12, 30, 60 min, n=2, preliminary.
Data set [3] addresses T1, TSPO. Put plainly: Radiometric TSPO binding assay, [3H]PK11195 displacement in heart lysate. Further details: species or system athymic nude rat. The settings on record: for Ki: read-out: Heart Ki, versus [3H]PK11195, Ki ± S.E.M., triplicate.
In data set [4] the target is T1, TSPO. Description: Radiometric TSPO binding assay, [3H]PK11195 displacement in kidney lysate. As to conditions: read-out: Kidney Ki, low-affinity binding (mixed affinity binding), versus [3H]PK11195, Ki ± S.E.M., low-affinity component. Further details: species or system athymic nude rat.

As to `CCc1cc(CC)n2nc(-c3ccc(OCCF)cc3)c(CC(=O)N(CC)CC)c2n1` [2b], in data set [1], the Ki (as a rule, a measure of affinity in units of concentration, obtained from inhibition or displacement) was 0.27 nM.
`CCc1cc(CC)n2nc(-c3ccc(OCC[18F])cc3)c(CC(=O)N(CC)CC)c2n1` [[^18F]-2b, 2-(5,7-diethyl-2-(4-(2-[^18F]fluoroethoxy)phenyl)pyrazolo[1,5-a]pyrimidin-3-yl)-N,N– diethylacetamide]: the “enhancement in affinity compared to [18F]-2a” value in data set [1] (TSPO affinity) was 36 fold.
As to `CN(C)C(=O)Cc1nn(-c2cccc([18F])n2)c(=O)c2c1c1ccc(Cl)cc1n2C` [[^18F]-14, 7-chloro-N,N,5-trimethyl-4-oxo-3(6-[^18F]fluoropyridin-2-yl)-3,5-dihydro-4H-pyridazino[4,5-b]indole-1-acetamide], the “% parent at 60 min” value in data set [2] is reported as over 90%.
In the case of `COc1ccc(OC)c(CN(C(=O)CF)c2ccccc2Oc2ccccc2)c1` [compound 1], in data set [1], the Ki was 6.17 nM.
With `CN(C)C(=O)Cc1nn(-c2cccc([N+](=O)[O-])c2)c(=O)c2c1c1ccc(Cl)cc1n2C` [compound 11], in data set [3], the Ki came to 0.00118 ± 9e-05 nM.
`CN(C)C(=O)Cc1nn(-c2ccc(F)cc2)c(=O)c2c1c1ccc(Cl)cc1n2C` [compound 12]: in data set [4], the Ki was 0.969 nM.
`CN(C)C(=O)Cc1nn(-c2ccccn2)c(=O)c2c1c1ccc(Cl)cc1n2C` [compound 13]: the Ki in data set [3] amounted to 4.94 ± 0.662 nM. Besides, the “Heart Ki” value in data set [3] (versus [3H]PK11195, Ki ± S.E.M., triplicate) is on record as “did not appreciably bind TSPO”.
